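All cell lines were grown in 96-well plates and treated with compound for 48 hours. TGI: concentration producing complete growth inhibition.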
Legend:
Test in all cases: NCI anticancer screen, dose series, 48 h
786-0 renal = tested on: 786-0 renal
A498 renal = tested on: A498 renal
A549 NSCLC = tested on: A549 NSCLC
ACHN renal = tested on: ACHN renal
CAKI-1 renal = tested on: CAKI-1 renal
CCRF-CEM leukemia = tested on: CCRF-CEM leukemia
COLO 205 colon = tested on: COLO 205 colon
DLD-1 colon = tested on: DLD-1 colon
DMS 273 small cell lung = tested on: DMS 273 small cell lung
EKVX NSCLC = tested on: EKVX NSCLC
HCC-2998 colon = tested on: HCC-2998 colon
HCT-116 colon = tested on: HCT-116 colon
HL-60(TB) leukemia = tested on: HL-60(TB) leukemia
HOP-18 NSCLC = tested on: HOP-18 NSCLC
HOP-62 NSCLC = tested on: HOP-62 NSCLC
HOP-92 NSCLC = tested on: HOP-92 NSCLC
HT29 colon = tested on: HT29 colon
IGROV1 ovarian = tested on: IGROV1 ovarian
K-562 leukemia = tested on: K-562 leukemia
KM12 colon = tested on: KM12 colon
KM20L2 colon = tested on: KM20L2 colon
LOX IMVI melanoma = tested on: LOX IMVI melanoma
LXFL 529 NSCLC = tested on: LXFL 529 NSCLC
M14 melanoma = tested on: M14 melanoma
M19-MEL melanoma = tested on: M19-MEL melanoma
MALME-3M melanoma = tested on: MALME-3M melanoma
MOLT-4 leukemia = tested on: MOLT-4 leukemia
NCI-H226 lung = tested on: NCI-H226 lung
NCI-H23 lung = tested on: NCI-H23 lung
NCI-H460 lung = tested on: NCI-H460 lung
NCI-H522 lung = tested on: NCI-H522 lung
OVCAR-3 ovarian = tested on: OVCAR-3 ovarian
OVCAR-4 ovarian = tested on: OVCAR-4 ovarian
OVCAR-5 ovarian = tested on: OVCAR-5 ovarian
OVCAR-8 ovarian = tested on: OVCAR-8 ovarian
RPMI-8226 leukemia = tested on: RPMI-8226 leukemia
RXF 393 renal = tested on: RXF 393 renal
SF-268 CNS = tested on: SF-268 CNS
SF-295 CNS = tested on: SF-295 CNS
SF-539 CNS = tested on: SF-539 CNS
SK-MEL-2 melanoma = tested on: SK-MEL-2 melanoma
SK-MEL-28 melanoma = tested on: SK-MEL-28 melanoma
SK-MEL-5 melanoma = tested on: SK-MEL-5 melanoma
SK-OV-3 ovarian = tested on: SK-OV-3 ovarian
SN12C renal = tested on: SN12C renal
SNB-19 CNS = tested on: SNB-19 CNS
SNB-75 CNS = tested on: SNB-75 CNS
SNB-78 CNS = tested on: SNB-78 CNS
SR leukemia = tested on: SR leukemia
SW-620 colon = tested on: SW-620 colon
TK-10 renal = tested on: TK-10 renal
U251 CNS = tested on: U251 CNS
UACC-257 melanoma = tested on: UACC-257 melanoma
UACC-62 melanoma = tested on: UACC-62 melanoma
UO-31 renal = tested on: UO-31 renal
XF 498 CNS = tested on: XF 498 CNS
DMS 114 small cell lung = tested on: DMS 114 small cell lung
HCT-15 colon = tested on: HCT-15 colon

Work on `CN(C)CCN(C)CC1COC(C)(C)O1` (stereo unspecified) yielded a TGI (786-0 renal) greater than 100 µM, a TGI (A498 renal) greater than 100 µM and a TGI (A549 NSCLC) greater than 100 µM. The TGI (ACHN renal) was greater than 100 µM, the TGI (CAKI-1 renal) was greater than 100 µM and the TGI (CCRF-CEM leukemia) was greater than 100 µM. It also gave a TGI (COLO 205 colon) greater than 100 µM, a TGI (DLD-1 colon) greater than 100 µM and a TGI (DMS 273 small cell lung) greater than 100 µM. It also gave a TGI (EKVX NSCLC) greater than 100 µM, a TGI (HCC-2998 colon) greater than 100 µM and a TGI (HCT-116 colon) greater than 100 µM. The TGI (HL-60(TB) leukemia) was greater than 100 µM, the TGI (HOP-18 NSCLC) was greater than 100 µM and the TGI (HOP-62 NSCLC) was greater than 100 µM. It also gave a TGI (HOP-92 NSCLC) greater than 100 µM, a TGI (HT29 colon) greater than 100 µM and a TGI (IGROV1 ovarian) greater than 100 µM. For the same molecule, the TGI (K-562 leukemia) was greater than 100 µM, the TGI (KM12 colon) was greater than 100 µM and the TGI (KM20L2 colon) was greater than 100 µM. For the same molecule, the TGI (LOX IMVI melanoma) was greater than 100 µM, the TGI (LXFL 529 NSCLC) was greater than 100 µM and the TGI (M14 melanoma) was greater than 100 µM. It also gave a TGI (M19-MEL melanoma) greater than 100 µM, a TGI (MALME-3M melanoma) greater than 100 µM and a TGI (MOLT-4 leukemia) greater than 100 µM. The TGI (NCI-H226 lung) was greater than 100 µM, the TGI (NCI-H23 lung) was greater than 100 µM and the TGI (NCI-H460 lung) was greater than 100 µM. The TGI (NCI-H522 lung) was greater than 100 µM, the TGI (OVCAR-3 ovarian) was greater than 100 µM and the TGI (OVCAR-4 ovarian) was greater than 100 µM. The TGI (OVCAR-5 ovarian) was greater than 100 µM, the TGI (OVCAR-8 ovarian) was greater than 100 µM and the TGI (RPMI-8226 leukemia) was greater than 100 µM. The TGI (RXF 393 renal) was greater than 100 µM, the TGI (SF-268 CNS) was greater than 100 µM and the TGI (SF-295 CNS) was greater than 100 µM. For the same molecule, the TGI (SF-539 CNS) was greater than 100 µM, the TGI (SK-MEL-2 melanoma) was greater than 100 µM and the TGI (SK-MEL-28 melanoma) was greater than 100 µM. It also gave a TGI (SK-MEL-5 melanoma) greater than 100 µM, a TGI (SK-OV-3 ovarian) greater than 100 µM and a TGI (SN12C renal) greater than 100 µM. It also gave a TGI (SNB-19 CNS) greater than 100 µM, a TGI (SNB-75 CNS) greater than 100 µM and a TGI (SNB-78 CNS) greater than 100 µM. It also gave a TGI (SR leukemia) greater than 100 µM, a TGI (SW-620 colon) greater than 100 µM and a TGI (TK-10 renal) greater than 100 µM. It also gave a TGI (U251 CNS) greater than 100 µM, a TGI (UACC-257 melanoma) greater than 100 µM and a TGI (UACC-62 melanoma) greater than 100 µM. The TGI (UO-31 renal) was greater than 100 µM and the TGI (XF 498 CNS) was greater than 100 µM.

With `O=S(=O)(N/N=C/c1ccc(Cl)c(Cl)c1)c1ccccc1` the TGI (786-0 renal) was greater than 100 µM, the TGI (A498 renal) was 92.5 µM and the TGI (A549 NSCLC) was greater than 100 µM. The TGI (ACHN renal) was greater than 100 µM, the TGI (CAKI-1 renal) was greater than 100 µM and the TGI (CCRF-CEM leukemia) was greater than 100 µM. It also gave a TGI (COLO 205 colon) of 39.6 µM, a TGI (DLD-1 colon) greater than 100 µM and a TGI (DMS 114 small cell lung) of 87 µM. For the same molecule, the TGI (DMS 273 small cell lung) was greater than 100 µM, the TGI (EKVX NSCLC) was greater than 100 µM and the TGI (HCC-2998 colon) was greater than 100 µM. It also gave a TGI (HCT-116 colon) greater than 100 µM, a TGI (HCT-15 colon) greater than 100 µM and a TGI (HL-60(TB) leukemia) greater than 100 µM. For the same molecule, the TGI (HOP-18 NSCLC) was greater than 100 µM, the TGI (HOP-62 NSCLC) was greater than 100 µM and the TGI (HOP-92 NSCLC) was 48.6 µM. The TGI (HT29 colon) was greater than 100 µM, the TGI (IGROV1 ovarian) was greater than 100 µM and the TGI (K-562 leukemia) was greater than 100 µM. For the same molecule, the TGI (KM12 colon) was greater than 100 µM, the TGI (KM20L2 colon) was greater than 100 µM and the TGI (LOX IMVI melanoma) was greater than 100 µM. It also gave a TGI (LXFL 529 NSCLC) greater than 100 µM, a TGI (M14 melanoma) greater than 100 µM and a TGI (M19-MEL melanoma) greater than 100 µM. For the same molecule, the TGI (MALME-3M melanoma) was greater than 100 µM, the TGI (MOLT-4 leukemia) was 84.4 µM and the TGI (NCI-H226 lung) was greater than 100 µM. It also gave a TGI (NCI-H23 lung) greater than 100 µM, a TGI (OVCAR-3 ovarian) greater than 100 µM and a TGI (OVCAR-4 ovarian) greater than 100 µM. For the same molecule, the TGI (OVCAR-5 ovarian) was greater than 100 µM, the TGI (OVCAR-8 ovarian) was greater than 100 µM and the TGI (RPMI-8226 leukemia) was greater than 100 µM. The TGI (RXF 393 renal) was 63.2 µM, the TGI (SF-268 CNS) was greater than 100 µM and the TGI (SF-295 CNS) was greater than 100 µM. The TGI (SF-539 CNS) was greater than 100 µM, the TGI (SK-MEL-2 melanoma) was greater than 100 µM and the TGI (SK-MEL-28 melanoma) was greater than 100 µM. It also gave a TGI (SK-MEL-5 melanoma) greater than 100 µM, a TGI (SK-OV-3 ovarian) greater than 100 µM and a TGI (SN12C renal) greater than 100 µM. The TGI (SNB-75 CNS) was greater than 100 µM, the TGI (SNB-78 CNS) was greater than 100 µM and the TGI (SR leukemia) was greater than 100 µM. The TGI (SW-620 colon) was greater than 100 µM, the TGI (TK-10 renal) was greater than 100 µM and the TGI (U251 CNS) was greater than 100 µM. It also gave a TGI (UACC-257 melanoma) greater than 100 µM, a TGI (UACC-62 melanoma) greater than 100 µM and a TGI (UO-31 renal) of 94.2 µM. The TGI (XF 498 CNS) was greater than 100 µM.

— PubChem BioAssay (NCI)
